{"source": "patent US20130004966A1", "about": "“STRUCTURE OF CYTOKININS AND CYTOKININ RECEPTORS, AND MODULATION OF CYTOKININ SIGNALING” (Salk Institute for Biological Studies (027731), priority 2011, published 2013)", "key": {"[1]": {"target": "T1, AHK4 (Arabidopsis thaliana, UniProt Q9C5U0)", "T1 construct": "host or cells: E. coli", "T1 sequence (Q9C5U0 24-1080 limits assumed)": "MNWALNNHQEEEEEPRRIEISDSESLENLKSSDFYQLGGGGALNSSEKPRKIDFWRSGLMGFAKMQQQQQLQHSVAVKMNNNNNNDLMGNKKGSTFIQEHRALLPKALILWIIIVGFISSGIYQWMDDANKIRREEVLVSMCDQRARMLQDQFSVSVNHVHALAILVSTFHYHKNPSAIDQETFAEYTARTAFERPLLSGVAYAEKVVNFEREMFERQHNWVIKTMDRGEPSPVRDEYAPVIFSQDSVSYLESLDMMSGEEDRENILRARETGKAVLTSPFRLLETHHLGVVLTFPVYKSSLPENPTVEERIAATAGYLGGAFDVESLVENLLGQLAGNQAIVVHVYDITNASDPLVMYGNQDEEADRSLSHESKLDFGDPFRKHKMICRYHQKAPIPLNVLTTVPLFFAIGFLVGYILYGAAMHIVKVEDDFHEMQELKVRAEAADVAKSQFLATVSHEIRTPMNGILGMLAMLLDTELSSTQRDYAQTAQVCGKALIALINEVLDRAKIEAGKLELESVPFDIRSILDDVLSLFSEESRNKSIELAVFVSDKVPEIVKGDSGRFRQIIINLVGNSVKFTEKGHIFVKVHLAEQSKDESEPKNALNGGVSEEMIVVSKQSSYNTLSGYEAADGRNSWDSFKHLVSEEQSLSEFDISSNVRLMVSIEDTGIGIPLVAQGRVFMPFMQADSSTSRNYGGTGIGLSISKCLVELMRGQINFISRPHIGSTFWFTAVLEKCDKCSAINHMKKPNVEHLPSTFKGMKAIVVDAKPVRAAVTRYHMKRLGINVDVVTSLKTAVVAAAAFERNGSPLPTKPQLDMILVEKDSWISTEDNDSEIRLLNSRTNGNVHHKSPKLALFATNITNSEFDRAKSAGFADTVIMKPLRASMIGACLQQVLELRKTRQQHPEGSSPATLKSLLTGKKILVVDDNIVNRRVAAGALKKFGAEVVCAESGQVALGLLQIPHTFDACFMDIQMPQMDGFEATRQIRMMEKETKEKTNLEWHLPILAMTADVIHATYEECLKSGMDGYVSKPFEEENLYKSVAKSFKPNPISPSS", "conditions": "literature result, Romanov et al., J. Exp. Bot. 57:4051-4058 (2006); cited from earlier work"}, "[2]": {"assay": "Crystallization of purified AHK4 in the presence of tZr (difference density in ligand binding pocket)", "type": "physicochemical", "conditions": "no difference density for the ribose portion of tZr in the crystal complex", "source_text": "Protein Expression and Purification. A synthetic gene comprising the sensor domain of AHK4 (residues 126-395, numbering in accordance with the short splice-variant of AHK4) was codon-optimised for expression in E. coli (Geneart, Regensburg, Germany). The Ncol/Notl digested synthetic fragment was inserted into a modified pET21d (Novagen) plasmid providing N-terminal 7xHis and Strep II affinity tags and expressed as a SUMO fusion protein in E. coli Origami (DE3) cells (Novagen). Cells grown to an OD600nm of 0.8 were induced with 0.3 mM isopropyl-β-D-thiogalactopyranoside in Terrific Broth at 16° C. for 22 h. Cells were collected by centrifugation at 4,500 xg for 30 min, washed in PBS buffer, incubated with 100 mg lysozyme for 1 h at room temperature and snap-frozen in liquid nitrogen. For protein purification cells were thawn in buffer A (25 mM Tris, pH 7.6, 500 mM NaCl, 15 mM Imidazole and, if applicable, 0.1 mM of the respective cytokinin), lysed by sonication, and centrifuged at 75,000 xg for 90 min. The supernatant was incubated in batch with 5 mL HIS-Select Cobalt Affinity Gel (Sigma), washed with buffer A and eluted in buffer A supplemented with 200 mM imidazole. The fusion protein was dialysed against buffer B (25 mM Tris, pH 8.0, 300 mM NaCl, 1 mM EDTA) and then loaded onto a 1 mL Strep-Tactin Superflow high capacity cartridge (IBA, Gottingen, Germany). […]"}}}
{"smiles": "C/C(=C\\CNc1ncnc2c1ncn2[C@@H]1O[C@H](CO)[C@@H](O)[C@H]1O)CO", "note": "(relative stereo) [tZr, trans-zeatin riboside]", "values": [{"measurement": "binding affinity to AHK4", "setting": "[1]", "value": "high affinity"}, {"measurement": "stability of ligand during purification with AHK4", "setting": "[2]", "value": "underwent hydrolysis during purification"}]}
